Data from paper PMC6182184 (2018).

Test system: SRB-2 (RNA, aptamer) GGAACCUCGCUUCGGCGAUGAUGGAGAGGCGCAAGGUUAACCGCCUCAGGUUCC
Assay: fluorescence titration
Details: 125 mM KCl, 5 mM MgCl2, 20 mM Hepes pH 7.4, 25 °C, RNA titrated

Kd (50 nM probe)	Kd (10 nM probe)	Compound
	59 ± 9 nM	CN(C)c1ccc2cc3ccc(N(C)C)cc3[o+]c2c1
	88 ± 8 nM	CN(C)c1ccc2cc3ccc(N(C)C)cc3nc2c1

Second part, the compound before the results:

Compound	Kd (50 nM probe)	Kd (10 nM probe)
CCN(CC)c1ccc2nc3ccc(N(CC)CC)cc3[o+]c2c1	260 ± 21 nM	
Nc1c2ccccc2nc2ccccc12	2960 ± 240 nM	
CCN(CC)c1ccc2cc3ccc(=[N+](CC)CC)cc-3oc2c1		251 ± 50 nM
